Laboratory results as given in patent US12065442B2, “Tropomyosin receptor kinase (TRK) degradation compounds and methods of use” (Cullgen (Shanghai), Inc., priority 2018, dated 2024).

The molecules below were run on KM12 cells (assay: Cell viability assay (CellTiter-Glo) in KM12 cells). Conditions: Homo sapiens, 72 h; Table 4; KM12 cell viability, CellTiter-Glo, 3 days; read-out: IC50.
Assay type: cell-based

Structure (SMILES)	IC50 [µM]
Cn1c(=O)n(C2CCC(=O)NC2=O)c2cccc(CCCN3CCN(c4cccc(-c5cnc6ccc(N7CCC[C@@H]7c7cccc(F)c7)nn56)n4)CC3)c21 (stereo partly drawn) [TR-240, 3-(4-(3-(4-(6-(6-((R)-2-(3-fluorophenyl)pyrrolidin-1-yl)imidazo[1,2-b]pyridazin-3-yl)pyridin-2-yl)piperazin-1-yl)propyl)-3-methyl-2-oxo-2,3-dihydro-1H-benzo[d]imidazol-1-yl)piperidine-2,6-dione]	0.016
O=C1CCC(n2c(=O)n(CCN3CCN(c4cccc(-c5cnc6ccc(N7CCC[C@@H]7c7cccc(F)c7)cn56)n4)CC3)c3ccccc32)C(=O)N1 (stereo partly drawn) [TR-242, 3-(3-(2-(4-(6-(6-((R)-2-(3-fluorophenyl)pyrrolidin-1-yl)imidazo[1,2-a]pyridin-3-yl)pyridin-2-yl)piperazin-1-yl)ethyl)-2-oxo-2,3-dihydro-1H-benzo[d]imidazol-1-yl)piperidine-2,6-dione]	> 0.5
Cn1c(=O)n(C2CCC(=O)NC2=O)c2cccc(OCCN3CCN(c4cccc(-c5cnc6ccc(N7CCC[C@@H]7c7cccc(F)c7)nn56)n4)CC3)c21 (stereo partly drawn) [TR-244, 3-(4-(2-(4-(6-(6-((R)-2-(3-fluorophenyl)pyrrolidin-1-yl)imidazo[1,2-b]pyridazin-3-yl)pyridin-2-yl)piperazin-1-yl)ethoxy)-3-methyl-2-oxo-2,3-dihydro-1H-benzo[d]imidazol-1-yl)piperidine-2,6-dione]	0.298
Cn1c(=O)n(C2CCC(=O)NC2=O)c2cccc(OCCCN3CCN(c4cccc(-c5cnc6ccc(N7CCC[C@@H]7c7cccc(F)c7)nn56)n4)CC3)c21 (stereo partly drawn) [TR-245, 3-(4-(3-(4-(6-(6-((R)-2-(3-fluorophenyl)pyrrolidin-1-yl)imidazo[1,2-b]pyridazin-3-yl)pyridin-2-yl)piperazin-1-yl)propoxy)-3-methyl-2-oxo-2,3-dihydro-1H-benzo[d]imidazol-1-yl)piperidine-2,6-dione]	> 0.5
Cn1c(=O)n(C2CCC(=O)NC2=O)c2ccc(OCCN3CCN(c4cccc(-c5cnc6ccc(N7CCC[C@@H]7c7cccc(F)c7)nn56)n4)CC3)cc21 (stereo partly drawn) [TR-246, 3-(5-(2-(4-(6-(6-((R)-2-(3-fluorophenyl)pyrrolidin-1-yl)imidazo[1,2-b]pyridazin-3-yl)pyridin-2-yl)piperazin-1-yl)ethoxy)-3-methyl-2-oxo-2,3-dihydro-1H-benzo[d]imidazol-1-yl)piperidine-2,6-dione]	0.101

Same assay, conditions: Homo sapiens, KM12, 72 h

Structure (SMILES)	IC50 [µM]
Cn1c(=O)n(C2CCC(=O)NC2=O)c2cccc(CCCCN3CCN(c4cccc(-c5cnc6ccc(N7CCC[C@@H]7c7cccc(F)c7)nn56)n4)CC3)c21 (stereo partly drawn) [TR-241, 3-(4-(4-(4-(6-(6-((R)-2-(3-fluorophenyl)pyrrolidin-1-yl)imidazo[1,2-b]pyridazin-3-yl)pyridin-2-yl)piperazin-1-yl)butyl)-3-methyl-2-oxo-2,3-dihydro-1H-benzo[d]imidazol-1-yl)piperidine-2,6-dione]	0.009
